Assay results: ChEMBL document CHEMBL5335843, “Application of tobramycin benzyl ether as an antibiotic adjuvant capable of sensitizing multidrug-resistant Gram-negative bacteria to rifampicin” (2024)
In brackets after ≈: the same amount, converted by molar mass. Activity calls are given as the source filed them. No cut-off for these calls is given here. Positions of bridges follow the written chain, without caps; N, C: chain ends. Non-standard residues stand in square brackets, D forms with d. Residues, ends and D or L forms follow the SMILES beside them. *: point of attachment. X1 = CC[C@H](C)CCCCC(=O)*; dDab = NCC[C@@H](N)C(=O)O; Dab = NCC[C@H](N)C(=O)O

Legend:
Type in all cases: functional
Acinetobacter baumannii [1] = experiment: Antibacterial activity against Acinetobacter baumannii ATCC 17978 assessed as inhibition of bacterial growth incubated for 18 hrs by two fold broth microdilution assay
Escherichia coli [2] = experiment: Antibiotic adjuvant activity against Escherichia coli ATCC 25922 assessed as rifampicin MIC incubated for 18 hrs in presence of Rifampicin by two fold broth microdilution checkerboard assay
Pseudomonas aeruginosa [3] = experiment: Antibiotic adjuvant activity against Pseudomonas aeruginosa PAO1 assessed as fold potentiation incubated for 18 hrs in presence of Rifampicin by two fold broth microdilution checkerboard assay
Acinetobacter baumannii [4] = experiment: Antibiotic adjuvant activity against Acinetobacter baumannii ATCC 17978 assessed as fold potentiation incubated for 18 hrs in presence of Rifampicin by two fold broth microdilution checkerboard assay
Acinetobacter baumannii [5] = experiment: Antibiotic adjuvant activity against Acinetobacter baumannii ATCC 17978 assessed as rifampicin MIC incubated for 18 hrs in presence of Rifampicin by two fold broth microdilution checkerboard assay
Escherichia coli [6] = experiment: Antibacterial activity against Escherichia coli ATCC 25922 assessed as inhibition of bacterial growth incubated for 18 hrs by two fold broth microdilution assay
Pseudomonas aeruginosa [7] = experiment: Antibacterial activity against Pseudomonas aeruginosa PAO1 assessed as inhibition of bacterial growth incubated for 18 hrs by two fold broth microdilution assay
Enterococcus faecium [8] = experiment: Antibacterial activity against Enterococcus faecium 114278 assessed as inhibition of bacterial growth incubated for 18 hrs by two fold broth microdilution assay
Enterococcus faecium [9] = experiment: Antibacterial activity against Enterococcus faecium 128149 assessed as inhibition of bacterial growth incubated for 18 hrs by two fold broth microdilution assay
Staphylococcus aureus [10] = experiment: Antibacterial activity against methicilin-resistant Staphylococcus aureus assessed as inhibition of bacterial growth incubated for 18 hrs by two fold broth microdilution assay
Pseudomonas aeruginosa [11] = experiment: Antibacterial activity against multi-drug resistant Pseudomonas aeruginosa clinical isolate PA114228 assessed as inhibition of bacterial growth incubated for 18 hrs by two fold broth microdilution assay
Pseudomonas aeruginosa [12] = experiment: Antibacterial activity against multi-drug resistant Pseudomonas aeruginosa clinical isolate PA101243 assessed as inhibition of bacterial growth incubated for 18 hrs by two fold broth microdilution assay
Escherichia coli [13] = experiment: Antibacterial activity against multi-drug resistant Escherichia coli clinical isolate EC107115 assessed as inhibition of bacterial growth incubated for 18 hrs by two fold broth microdilution assay
Pseudomonas aeruginosa [14] = experiment: Antibacterial activity against multi-drug resistant Pseudomonas aeruginosa clinical isolate PA262 assessed as inhibition of bacterial growth incubated for 18 hrs by two fold broth microdilution assay
Pseudomonas aeruginosa [15] = experiment: Antibacterial activity against multi-drug resistant Pseudomonas aeruginosa clinical isolate PA259 assessed as inhibition of bacterial growth incubated for 18 hrs by two fold broth microdilution assay
Pseudomonas aeruginosa [16] = experiment: Antibacterial activity against multi-drug resistant Pseudomonas aeruginosa clinical isolate PA264 assessed as inhibition of bacterial growth incubated for 18 hrs by two fold broth microdilution assay
Escherichia coli [17] = experiment: Antibacterial activity against multi-drug resistant Escherichia coli clinical isolate EC94474 assessed as inhibition of bacterial growth incubated for 18 hrs by two fold broth microdilution assay
Enterococcus faecium [18] = experiment: Antibiotic adjuvant activity against Enterococcus faecium 114278 assessed as inhibition of bacterial growth incubated for 18 hrs in presence of rifampicin by two fold broth microdilution checkerboard assay
Staphylococcus aureus [19] = experiment: Antibiotic adjuvant activity against methicilin-resistant Staphylococcus aureus assessed as inhibition of bacterial growth incubated for 18 hrs in presence of rifampicin by two fold broth microdilution checkerboard assay
Enterococcus faecium [20] = experiment: Antibiotic adjuvant activity against Enterococcus faecium 128149 assessed as inhibition of bacterial growth incubated for 18 hrs in presence of rifampicin by two fold broth microdilution checkerboard assay
Escherichia coli [21] = experiment: Antibiotic adjuvant activity against Escherichia coli ATCC 25922 assessed as fold potentiation incubated for 18 hrs in presence of Rifampicin by two fold broth microdilution checkerboard assay

**Q.** What does the source list for `NC[C@H]1O[C@H](O[C@H]2[C@H](OC(=O)Nc3ccccc3)[C@@H](O[C@H]3O[C@H](COC(=O)Nc4ccccc4)[C@@H](OC(=O)Nc4ccccc4)[C@H](N)[C@H]3OC(=O)Nc3ccccc3)[C@H](N)C[C@@H]2N)[C@H](N)C[C@@H]1OC(=O)Nc1ccccc1.O=C(O)C(F)(F)F`?
**A.** MIC (Acinetobacter baumannii [1]): > 128 µg/mL; MIC (Escherichia coli [2]): 0.008 µg/mL; fold change (FC) (Pseudomonas aeruginosa [3]): 1; fold change (FC) (Acinetobacter baumannii [4]): 16; MIC (Acinetobacter baumannii [5]): 0.0312 µg/mL; MIC (Escherichia coli [6]): 32 µg/mL; MIC (Pseudomonas aeruginosa [7]): 64 µg/mL

**Q.** Which results are given for `CC[C@H](C)CCCCC(=O)N[C@@H](CCN)C(=O)N[C@H](C(=O)N[C@@H](CCN)C(=O)N[C@H]1CCNC(=O)[C@H]([C@@H](C)O)NC(=O)[C@H](CCN)NC(=O)[C@H](CCN)NC(=O)[C@H](CC(C)C)NC(=O)[C@@H](Cc2ccccc2)NC(=O)[C@H](CCN)NC1=O)[C@@H](C)O` (X1-[Dab]T[Dab][Dab][Dab][dF]L[Dab][Dab]T; lactam 4-C)?
**A.** MIC (Enterococcus faecium [8]): > 128 µg/mL; MIC (Enterococcus faecium [9]): > 128 µg/mL; MIC (Staphylococcus aureus [10]): > 128 µg/mL

**Q.** For `Cl.NC[C@H]1O[C@H](O[C@H]2[C@H](OCc3ccc(-c4ccccc4)cc3)[C@@H](O[C@H]3O[C@H](COCc4ccc(-c5ccccc5)cc4)[C@@H](OCc4ccc(-c5ccccc5)cc4)[C@H](N)[C@H]3OCc3ccc(-c4ccccc4)cc3)[C@H](N)C[C@@H]2N)[C@H](N)C[C@@H]1OCc1ccc(-c2ccccc2)cc1`, which MIC (Acinetobacter baumannii [1]) is on record?
**A.** > 128 µg/mL

**Q.** And the MIC (Escherichia coli [6])?
**A.** > 128 µg/mL

**Q.** What about the MIC (Pseudomonas aeruginosa [7]) of the same compound?
**A.** > 128 µg/mL

**Q.** `CC(C)(C)c1ccc(COC[C@H]2O[C@H](O[C@@H]3[C@@H](OCc4ccc(C(C)(C)C)cc4)[C@H](O[C@H]4O[C@H](CN)[C@@H](OCc5ccc(C(C)(C)C)cc5)C[C@H]4N)[C@@H](N)C[C@H]3N)[C@H](OCc3ccc(C(C)(C)C)cc3)[C@@H](N)[C@@H]2OCc2ccc(C(C)(C)C)cc2)cc1.Cl` was tested. Which MIC (Acinetobacter baumannii [1]) did it give?
**A.** > 128 µg/mL

**Q.** What about the MIC (Escherichia coli [6]) of the same compound?
**A.** > 128 µg/mL

**Q.** And the MIC (Pseudomonas aeruginosa [7])?
**A.** > 128 µg/mL

**Q.** Which MIC (Pseudomonas aeruginosa [11]) does the source give for `CN(C)c1ccc(O)c2c1C[C@H]1C[C@H]3[C@H](N(C)C)C(O)=C(C(N)=O)C(=O)[C@@]3(O)C(O)=C1C2=O` [MINOCYCLINE] here?
**A.** 128 µg/mL (≈ 280 µM)

**Q.** And the MIC (Pseudomonas aeruginosa [12])?
**A.** 64 µg/mL (≈ 140 µM)

**Q.** And the MIC (Escherichia coli [13])?
**A.** 32 µg/mL (≈ 69.9 µM)

**Q.** What about the MIC (Pseudomonas aeruginosa [14]) of the same compound?
**A.** 256 µg/mL (≈ 560 µM)

**Q.** What about the MIC (Pseudomonas aeruginosa [15]) of the same compound?
**A.** 128 µg/mL (≈ 280 µM)

**Q.** What about the MIC (Pseudomonas aeruginosa [16]) of the same compound?
**A.** 32 µg/mL (≈ 69.9 µM)

**Q.** What about the MIC (Escherichia coli [17]) of the same compound?
**A.** 64 µg/mL (≈ 140 µM)

**Q.** How did the Activity (Enterococcus faecium [18]) turn out when `CC[C@H](C)CCCCC(=O)N[C@@H](CCN)C(=O)N[C@H](C(=O)N[C@@H](CCN)C(=O)N[C@H]1CCNC(=O)[C@H]([C@@H](C)O)NC(=O)[C@H](CCN)NC(=O)[C@H](CCN)NC(=O)[C@H](CC(C)C)NC(=O)[C@@H](Cc2ccccc2)NC(=O)[C@@H](CCN)NC1=O)[C@@H](C)O` (X1-[Dab]T[Dab][Dab][dDab][dF]L[Dab][Dab]T; lactam 4-C) was run?
**A.** Active

**Q.** And the Activity (Staphylococcus aureus [19])?
**A.** Active

**Q.** And the Activity (Enterococcus faecium [20])?
**A.** Active

**Q.** `Cl.NC[C@H]1O[C@H](O[C@H]2[C@H](OCc3cc(Cl)cc(Cl)c3)[C@@H](O[C@H]3O[C@H](COCc4cc(Cl)cc(Cl)c4)[C@@H](OCc4cc(Cl)cc(Cl)c4)[C@H](N)[C@H]3OCc3cc(Cl)cc(Cl)c3)[C@H](N)C[C@@H]2N)[C@H](N)C[C@@H]1OCc1cc(Cl)cc(Cl)c1` was tested. Which MIC (Acinetobacter baumannii [1]) did it give?
**A.** > 128 µg/mL

**Q.** What about the MIC (Escherichia coli [6]) of the same compound?
**A.** > 128 µg/mL

**Q.** And the MIC (Pseudomonas aeruginosa [7])?
**A.** > 128 µg/mL

**Q.** With `CC(C)CCO[C@@H]1[C@@H](OCCC(C)C)[C@H](N)C[C@H](N)[C@H]1O[C@H]1O[C@H](CN)[C@@H](OCCC(C)C)C[C@H]1N.Cl` as the compound, how does the “fold change (FC)” value (Escherichia coli [21]) read?
**A.** 512

**Q.** What about the MIC (Acinetobacter baumannii [1]) of the same compound?
**A.** > 128 µg/mL

**Q.** What about the MIC (Escherichia coli [2]) of the same compound?
**A.** 0.0156 µg/mL

**Q.** What about the “fold change (FC)” value (Pseudomonas aeruginosa [3]) of the same compound?
**A.** 4

**Q.** What about the “fold change (FC)” value (Acinetobacter baumannii [4]) of the same compound?
**A.** 4

**Q.** And the MIC (Acinetobacter baumannii [5])?
**A.** 0.5 µg/mL

**Q.** And the MIC (Escherichia coli [6])?
**A.** > 128 µg/mL

**Q.** What about the MIC (Pseudomonas aeruginosa [7]) of the same compound?
**A.** > 128 µg/mL
